We go through 2 molecules from patent US20050148553A1, “Use of tigecycline, alone, or in combination with rifampin to treat osteomyelitis and/or septic arthritis” (priority 2003, published 2005).

“And” between values parts separate entries of the source, which are not always exact repeats. Equal values may be shown once. Read-outs that look alike come from different tables or passages of the source. Where only a bound is given, the exact number is not on record here.

The nature of data set [1]: Adverse events and weight variance in infected treated rabbits. From the text:
All rabbits were monitored weekly for weight variance. […] The key for FIGS. 4A and B is as follows: Control=control group, no treatment; Vancomycin=subcutaneous vancomycin treated group; Vanco+Rifampin=subcutaneous vancomycin with oral rifampin treated group; Gar-936=subcutaneous Gar-936 treated group; Gar-936+Rifampin=subcutaneous Gar-936 with oral Rifampin treated group.

Data set [2] can be described thus: Tigecycline in human serum, tissue and synovial fluid after one intravenous 100 mg dose (LC/MS/MS). More on the design: Calculated Concentration, serum: unit not given here. It counts as in vivo. The method, then: The objective of this study was to determine the tissue and corresponding serum concentration of tigecycline at selected time points in lung, colon, gallbladder tissues, bone, and synovial fluid. Samples were taken from subjects scheduled for lung, colon, gallbladder, or bone surgery, or a lumbar puncture who were given a single dose of tigecycline administered intravenously.
Pre-specified tissue/fluid sampling of either lung, colon, gallbladder, bone, and synovial fluid was performed on each subject during surgery at 4 hours, 8 hours, 12 hours, or 24 hours after the start of a single dose of 100 mg tigecycline administered over 30 minutes. Serum was collected from all subjects at hour 0 (before the first dose), approximately 30 minutes (end of infusion), and at the time corresponding to tissue/fluid collections. Tissue and serum concentration was determined according to the method set forth below.
Samples of human serum and tissue from study subjects who had received tigecycline were analyzed according to methods that had been previously validated. Serum samples and synovial fluid (0.2 ml) were mixed with 0.6 ml internal standard in acetonitrile, the supernatant evaporated to dryness and the residue reconstituted in 200 microliters mobile phase. Aliquots (10 microliters) of the reconstituted samples were injected into an LC/MS/MS.
The data was acquired by and analyzed on PE SCIEX “Analyst” version 1.3 software. Linear regression, with 1/x^2 weighting was used to obtain the best fit of the data for the calibration curves. The lower limit of quantitation was 10 ng/ml for serum and synovial fluid samples, 10 ng/g for the colon and gall bladder samples, and 30 ng/g for the bone samples.
Tigecycline was measured in human serum using an LC/MS/MS method. The primary stock solution of tigecycline was prepared at 1 mg/ml by dissolving in methanol. A secondary stock solution was prepared from the primary stock solution by diluting to a concentration of approximately 40,000 ng/ml with acetonitrile. The stock solutions were stored at −20° C. when not in use. A primary internal standard solution of tert-butyl-d9-tigecycline was prepared at a concentration of 1 mg/ml in methanol. A secondary internal standard stock solution was prepared by diluting the primary stock solution to a concentration of 100 micrograms/ml in acetonitrile with 0.1% trifluoroacetate added. The primary and secondary stock solutions were stored at −20° C. The working internal standard was prepared by diluting to volume with acetonitrile/0.1% trifluoroacetate. The working internal standard was stored at 4° C. when not in use. On the day of analysis, the secondary stock solution was brought to room temperature before use to prepared the standard curve working solutions. The standard curve was prepared at approximately 2000, 1600, 1000, 500, 250, 100, 50, 20, and 10 ng/ml by serial dilution in blank human serum.
The extraction procedure was as follows: to 200 microliters of calibrator, quality control or sample was added 600 microliters of internal standard working solution and vortex mixed. The samples were centrifuged for 10 minutes at 13000 rpm to separate the layers and the supernatant was transferred to a culture tube. The samples were evaporated to dryness in a Speed Vac. The residues were reconstituted by sonicating in 200 microliters of mobile phase and 10 microliters was injected in the LC/MS/MS. […]

Data set [3] concerns Mycobacterium abscessus. It counts as in vivo, human. As to conditions: vertebral osteomyelitis patient. The method, then:
Debridement was accomplished after one year of infection with placement of hardware. […] The amikacin was later stopped due to renal damage. Linezolid and azithromycin were later added to the treatment regimen. The organism was determined to be resistant to moxifloxacin.
The patient presented later with a new vertebral osteomyelitis just above the site of the old infection. A biopsy was performed and it was determined that no additional debridement was needed. […] Tigecycline was administered up to MIC 0.25 micrograms/ml. The patient's white blood cell count was normal while hypogammaglobulinemia was present and lymphocytic function decreased. The patient had also been under treatment with IL-12, but IL-12 was held during antibiotic treatment.

Data set [4] deals with methicillin-resistant S. aureus.
Procedure: Preparation of the Infective Media: S. aureus was incubated overnight in Mueller Hinton Broth (Difco Laboratories, Detroit, Mich.) medium spiked with 40 μg/ml oxacillin, at 37° C. The bacterial concentration of the culture was adjusted to 10^7 CFU's/ml.
Rabbit Infection Procedure: New Zealand white rabbits (Ray Nicholl's Rabbitry, Lumberton, Tex.), eight to 12 weeks old and weighing 2.0 to 3.5 kg, were utilized for the study. After anesthesia was given, an 18-gauge needle was inserted percutaneously through the lateral aspect of the left tibial metaphysis into the intramedullary cavity. Next, 0.15 ml of 5% sodium morrhuate (American Regent Laboratories, Inc., Shirley, N.Y.), 0.1 ml of S. aureus (10^7 CFU/ml), and 0.2 ml of sterile, normal saline, 0.9%, were injected sequentially.
Group 1 (control group): infected but left untreated for the duration of the study. Group 2: rabbits were treated for 4 weeks with subcutaneous vancomycin at 30 mg/kg twice daily. Group 3: rabbits were treated for 4 weeks with subcutaneous vancomycin at 30 mg/kg twice daily plus oral rifampin at 40 mg/kg twice daily in 0.5% methylcellulose. Group 4: rabbits were treated for 4 weeks with subcutaneous tigecycline at 14 mg/kg twice daily. Group 5: rabbits were treated for 4 weeks with subcutaneous tigecycline at the same dose as in the rabbits in Group 4, plus oral rifampin at 40 mg/kg twice daily in 0.5% methylcellulose. […] Group 6: rabbits were treated for 1 week with subcutaneous tigecycline at the same dose as in Group 4, but were sacrificed 3 hours after administration of the last dose. At that time, blood and infected bone samples were collected and tigecycline concentration was determined. Groups 1 to 5 were left untreated for 2 weeks after treatment phase of the experiment and sacrificed at 8 weeks after infection.
Radiographs of bilateral tibias were taken at initiation of therapy (2 weeks after infection), at the end of antibiotic therapy (6 weeks after infection), and at sacrifice (8 weeks after infection). Radiographs were scored according to a visual scale (Table 1) by three investigators, each blinded to the treatment group, and the grades were averaged.
After sacrifice, gross cultures were performed for right and left tibias. Quantitative counts of S. aureus, in CFUs per gram, of left tibial bone and marrow were determined for all study groups.
Culture Preparation: The bone marrow and the intramedullary canal of bilateral tibias were swabbed with sterile cotton tip applicators for gross cultures analysis of left tibias and quality assurance checks of right tibias. The inoculated applicator was streaked onto blood plates and then placed into 5 ml of sterile TSB. The plates and tubes were then incubated at 37° C. for 24 hours and growth and/or turbidity was recorded.
The bone marrow was placed into a sterile, 50 ml centrifuge tube and weighed. The bone fragments were broken into 0.5 cm^2 chips, placed into a sterile, 50 ml centrifuge tube, and the final product weighed. Normal sterile saline, 0.9%, was added in a 3 to 1 ratio (3 ml saline/gram of bone or marrow) and the suspensions were vortexed for 2 minutes. Six ten-fold dilutions of each suspension were prepared with sterile, normal saline, 0.9%. Twenty-microliter samples of each dilution, including the initial suspension, was plated, in triplicate, onto blood agar plates and incubated at 37° C. for 24 hours. CFUs were counted at the greatest dilution for each tibia sample.
Data set [5] deals with methicillin-resistant Staphylococcus aureus. The settings on record: 14 mg/kg bid; cited from earlier work.
For data set [6] the following is noted: for ratio of AUC in tissue to AUC in plasma: bone, bone marrow, salivary gland, thyroid, spleen, kidney (each).
Procedure: Sprague-Dawley rats (18 males) were given carbon-14 tigecycline at a dosage of 3 mg/kg by 30-minute infusion. Concentrations or radioactivity were determined in tissues of 3 rats/time point at the end of the infusion and at 1, 8, 24, 72, and 168 hours after the end of infusion.
Setting [7] is: average grade, t=14 versus t=56 days.
The mark [8] stands for this setting: individual rabbits, left tibia, 8 weeks after infection.

In the case of `CN(C)c1cc(NC(=O)CNC(C)(C)C)c(O)c2c1C[C@H]1C[C@H]3[C@H](N(C)C)C(O)=C(C(N)=O)C(=O)[C@@]3(O)C(O)=C1C2=O` [Tigecycline], the “symptoms of gastric dysfunction” value in data set [1] (approximately 1.0-1.5 weeks post-antibiotic initiation) was “mild to severe symptoms of gastric dysfunction”. This molecule returned a mean weight gain in data set [1] (infected rabbits after antibiotic treatment) of -0.05 kg. For the same molecule, in data set [1] (infected rabbits, 4 weeks treatment), the “rabbits that died before completion of treatment” value was determined as 5. The “dosage causing relevant morbidity and mortality” value in data set [1] (rabbit model, data not shown) is recorded as “higher than 14 mg/kg per day”. The “Calculated Concentration, tissue” value in data set [2] (Lung, 4 to 24 hours after dose) is 653 n2/2. Moreover, the concentration at 8 h in data set [2] (human, synovial fluid, intravenous, 100 mg, synovial fluid, 8 Hour, read-out: Calculated Concentration, synovial fluid) was 70.9 ng/mL. Moreover, the concentration at 12 h in data set [2] (human, synovial fluid, intravenous, 100 mg, synovial fluid, 12 Hour, read-out: Calculated Concentration, synovial fluid) was 111 ng/mL. Also, the “Calculated Concentration, serum” value in data set [2] (serum, 8 Hour) was 198 {n&mll and 186 {n&mll and 133 {n&mll and 206 {n&mll. In addition, the “Calculated Concentration, synovial fluid” value in data set [2] (synovial fluid, 12 Hour) was 65.0 ng/mL and 65.7 ng/mL and 62.8 ng/mL. For the same molecule, in data set [3], the clinical outcome is on record as “doing well a year after the treatment”. Also, in data set [4] (setting [7]), the “radiographic improvement (grade)” value is listed as 0.9+/−0.1 and the “radiographic improvement (percent)” value was 40.9%. The “rabbits/samples positive for MRSA in bone” value in data set [4] (bone cultures at sacrifice) is 1 out of 10 and one rabbit of 10. The “proportion of positive cultures in marrow” value in data set [4] (compared with 0.33 (5/15) in control group) worked out at 0. Also, the “bacterial outcome in bone and marrow, in words” value in data set [4] (end of study, MRSA infected rabbits) is “lower colony forming units in bone and marrow”. Besides, in data set [4] (setting [8]), the “Counts (CFU/gm) Bone” value was 178.6 CFU/gm and 0 CFU/gm (9×); the “Counts (CFU/gm) Marrow” value amounted to 0 CFU/gm. In addition, the “rabbits infected in bone marrow” value in data set [4] (marrow cultures at sacrifice) was “no infection”. In addition, the “average radiographic grade versus control group” value in data set [4] (t=56 days, p<0.05) is listed as “significantly lower”. For the same molecule, the “average bacterial concentration of the group” value in data set [4] (tibia bone) was found to be 20 CFU/gram bone. For the same molecule, the “efficacy compared with 40 mg/kg vancomycin” value in data set [5] is “more effective”.
Take `CN(C)c1cc(NC(=O)CNC(C)(C)C)c(O)c2c1C[C@H]1C[C@H]3[C@H](N(C)C)C(O)=C(C(N)=O)C(=O)[C@@]3(O)C(O)=C1C2=O` [[^14C]-Tigecycline]: the “ratio of AUC in tissue to AUC in plasma” value in data set [6] was “greater than 10”; in data set [6] (listed as carbon-14 tigecycline) it was more than 10. The “ratio of AUC in lung to AUC in plasma” value in data set [6] (lung) amounted to 4.4.
